The text below walks through data of patent US5935776A, “Small molecule inhibition of RNA/ligand binding” (University of Massachusetts Medical Center, priority 1995, dated 1999).

“Also recorded” adds a separate entry of the source. *1 amine or outer side, *2 acyl side, *3 side chain or, on linkers, in order; H or OH if unused. Where a SMILES comes first, the peptide text is derived from it. Bridges are numbered along the chain shown (N, C = ends). [ ]: non-standard residue; d: D form. The star is where a group is joined. X1 = NC1=N[C@@H]([C@H](N[*:1])C(=O)[*:2])C[C@H](O)N1; ΔAla(Z-3-ureido) = NC(=O)N/C=C(\N)C(=O)O; β3hOrn = NCCC[C@H](N)CC(=O)*; Dap = NC[C@H](N)C(=O)O

The test deals with Rev protein binding to RRE RNA probe (high affinity Rev-binding site). On the set-up: species or system HIV. Conditions: for inhibition of binding of Rev to the RRE (result in words): 67-nt high affinity Rev-binding site probe; for concentration at which inhibitory on Rev binding: third group of aminoglycosides; for inhibitory on Rev binding at any concentration tested: 67-nt 32P-labeled RNA probe. How it is done:
Rev binds specifically to the RRE in vitro. In chemical and RNAase protection experiments, binding of Rev primarily protects nucleotides within a 66 nucleotide fragment, referred to as domain II of the RRE.
To test whether antibiotics can block binding of Rev to the RRE, a 67-nt ^32 P-labeled RNA probe containing a high affinity Rev-binding site was incubated with purified E. coli-derived Rev protein in the presence of various antibiotics. Binding of Rev to the RNA probe was quantified by an RNA gel mobility shift assay.

Consider `NCC[C@H](O)C(=O)N[C@@H]1C[C@H](N)[C@@H](O[C@H]2O[C@H](CN)[C@@H](O)[C@H](O)[C@H]2O)[C@H](O)[C@H]1O[C@H]1O[C@H](CO)[C@@H](O)[C@H](N)[C@H]1O` [amikacin], for which the “inhibition of binding of Rev to the RRE (result in words)” value (“inhibition of binding of Rev to the RRE” below) is “effective in inhibiting the binding of Rev to the RRE”. Further, for the setting “67-nt probe”, the “concentration at which inhibitory on Rev binding” value (from here on “concentration at which inhibitory”) turned out to be 100 μm. Regarding `CC1(C)S[C@@H]2[C@H](NC(=O)[C@H](N)c3ccccc3)C(=O)N2[C@H]1C(=O)O` [ampicilin], the “inhibitory on Rev binding at any concentration tested” value is “no”. Still for that read-out and setting: with `CC1(C)S[C@@H]2[C@H](NC(=O)C(C(=O)O)c3ccccc3)C(=O)N2[C@H]1C(=O)O` (stereo partly shown) [carbenicilin] the entry was “no”; with `O=C(N[C@H](CO)[C@H](O)c1ccc([N+](=O)[O-])cc1)C(Cl)Cl` [chloramphenicol], “no”; with `CCC[C@@H]1C[C@@H](C(=O)N[C@@H]([C@H]2O[C@H](SC)[C@H](O)[C@@H](O)[C@H]2O)[C@H](C)Cl)N(C)C1` [clindamycin A], “no”.

Regarding `CN[C@@H]1[C@H](O[C@H]2[C@H](O[C@H]3[C@H](O)[C@@H](O)[C@H](NC(=N)N)[C@@H](O)[C@@H]3NC(=N)N)O[C@@H](C)[C@]2(O)CO)O[C@@H](CO)[C@H](O)[C@H]1O` [dihydrostreptomycin], the “inhibitory on Rev binding at any concentration tested” value is on record as “no inhibitory activity at any concentration tested”.

For the molecule `Cn1cc(NC(=O)c2cc(NC(=O)c3cc(NC=O)cn3C)cn2C)cc1C(=O)NCCC(=N)N` [distamycin A], the “inhibitory on Rev binding at any concentration tested” value is “no”. Same read-out and setting: as for `CC[C@H]1OC(=O)[C@H](C)[C@@H](O[C@H]2C[C@@](C)(OC)[C@@H](O)[C@H](C)O2)[C@H](C)[C@@H](O[C@@H]2O[C@H](C)C[C@H](N(C)C)[C@H]2O)[C@](C)(O)C[C@@H](C)C(=O)[C@H](C)[C@@H](O)[C@]1(C)O` [erythromycin], the entry is “no”; as for `CN[C@H]1C[C@@H](N)[C@H](O)[C@@H](O[C@@H]2O[C@H](CO)[C@H](O)[C@@H]3OC4(O[C@H]23)O[C@H]([C@@H](N)CO)[C@H](O)[C@H](O)[C@H]4O)[C@@H]1O` (stereo partly shown) [hygromycin B], “no inhibitory activity at any concentration tested”. As to `NC[C@H]1O[C@H](O[C@H]2[C@H](O)[C@@H](O[C@H]3O[C@H](CO)[C@@H](O)[C@H](N)[C@H]3O)[C@H](N)C[C@@H]2N)[C@H](N)[C@@H](O)[C@@H]1O` [kanamycin B], the “inhibition of binding of Rev to the RRE” value was “effective in inhibiting the binding of Rev to the RRE”. The “concentration at which inhibitory” value (67-nt probe) is 100 μm. Turning to `C[C@H]1O[C@H](O[C@H]2[C@H](O)[C@@H](O)[C@@H](O)[C@H](O)[C@@H]2O)[C@@H](N)C[C@@H]1NC(=N)C(=O)O` [kasugamycin], the “inhibitory on Rev binding at any concentration tested” value is recorded as “no inhibitory activity at any concentration tested”. Same read-out and setting: with `CCC[C@@H]1C[C@@H](C(=O)N[C@@H]([C@H]2O[C@H](SC)[C@H](O)[C@@H](O)[C@H]2O)[C@@H](C)O)N(C)C1` [lincomycin] the entry was “no”. Regarding `NC[C@@H]1O[C@H](O[C@H]2[C@@H](O)[C@H](O[C@@H]3[C@@H](O)[C@H](N)C[C@H](N)[C@H]3O[C@H]3O[C@H](CO)[C@@H](O)C[C@H]3N)O[C@@H]2CO)[C@H](N)[C@@H](O)[C@@H]1O[C@H]1O[C@H](CO)[C@@H](O)[C@H](O)[C@@H]1O` [lividomycin A], the “inhibition of binding of Rev to the RRE” value is listed as “effective in inhibiting the binding of Rev to the RRE; also recorded: most active”. For the same molecule, under “67-nt probe”, the “concentration required to achieve inhibition of Rev binding” value amounted to 10 µM and the “inhibitory potential / ability on Rev binding (grade in words)” value is reported as “exceptional inhibitory potential; also recorded: significant inhibitory ability”. In the case of `NC[C@H]1O[C@H](O[C@H]2[C@H](O)[C@@H](O)[C@H](N)C[C@@H]2N)[C@H](N)[C@@H](O)[C@@H]1O` [neamine], the “inhibition of binding of Rev to the RRE” value is on record as “effective in inhibiting the binding of Rev to the RRE”. Moreover, under “67-nt probe”, the “concentration at which inhibitory” value turned out to be 100 μm.

For the molecule `NC[C@@H]1O[C@H](O[C@H]2[C@@H](O)[C@H](O[C@@H]3[C@@H](O)[C@H](N)C[C@H](N)[C@H]3O[C@H]3O[C@H](CO)[C@@H](O)[C@H](O)[C@H]3N)O[C@@H]2CO)[C@H](N)[C@@H](O)[C@@H]1O` [paromomycin], the “inhibitory on Rev binding at any concentration tested” value is recorded as “no inhibitory activity at any concentration tested” and the “inhibition of binding of Rev to the RRE” value is “completely inactive”. For `NC[C@H]1O[C@H](O[C@H]2[C@H](O[C@@H]3O[C@H](CO)[C@@H](O)[C@H]3O)[C@@H](O)[C@H](N)C[C@@H]2N)[C@H](N)[C@@H](O)[C@@H]1O` [ribostamycin], the “inhibition of binding of Rev to the RRE” value is given as “effective in inhibiting the binding of Rev to the RRE”. Moreover, the “concentration at which inhibitory” value (67-nt probe) worked out at 100 μm.

Turning to `CN[C@@H]1[C@@H](O)[C@@H](O[C@@H]2[C@@H](O)[C@H](O[C@H]3OC(CN)=CC[C@H]3N)[C@@H](N)C[C@H]2N)OC[C@]1(C)O` [sisomicin], the “inhibition of binding of Rev to the RRE” value was “effective in inhibiting the binding of Rev to the RRE”. Further, the “concentration at which inhibitory” value (67-nt probe) stood at 100 μm.

`CNC1C(O)C(NC)C2OC3(O)C(=O)CC(C)OC3OC2C1O` (stereo not shown) [specitinomycin]: the “inhibitory on Rev binding at any concentration tested” value was “no inhibitory activity at any concentration tested” and the “inhibition of binding of Rev to the RRE” value is “inactive”.

As for `[H]/N=C(/N)N[C@H]1[C@H](O)[C@@H](O)[C@H](O[C@@H]2O[C@@H](C)[C@](O)(C=O)[C@H]2O[C@@H]2O[C@@H](CO)[C@H](O)[C@@H](O)[C@@H]2NC)[C@@H](N/C(N)=N\[H])[C@@H]1O` [stretomycin], the “inhibitory on Rev binding at any concentration tested” value is “no inhibitory activity at any concentration tested” and the “inhibition of binding of Rev to the RRE” value was “inactive”. On to `CN(C)C1C(=O)C(C(N)=O)=C(O)C2(O)C(=O)C3=C(O)c4c(O)cccc4C(C)(O)C3CC12` (stereo not shown) [tetracycline], for which the “inhibitory on Rev binding at any concentration tested” value is recorded as “no”.

For `NCCC[C@H](N)CC(=O)N[C@H]1CNC(=O)[C@H]([C@H]2C[C@H](O)NC(N)=N2)NC(=O)/C(=C/NC(N)=O)NC(=O)[C@H](CO)NC(=O)[C@H](CO)NC1=O` [viomycin] (β3hOrn-[Dap]SS[ΔAla(Z-3-ureido)][X1]; lactam 1-C), the “inhibitory on Rev binding at any concentration tested” value is given as “no”. On the same count and under the same terms, with butirosin the entry was “no inhibitory activity at any concentration tested”; with capreomycin, “no”. For chromomycin A, the “inhibitory on Rev binding at any concentration tested” value was “no”. In the case of gentamicin C, the “inhibition of binding of Rev to the RRE” value is given as “effective in inhibiting the binding of Rev to the RRE”. Besides, the “concentration at which inhibitory” value (67-nt probe) is listed as 100 μm. As to olivomycin, the “inhibitory on Rev binding at any concentration tested” value is recorded as “no”. The same measure, in the same setting: as for thiostreption, the entry is “no”; as for tunicamycin, “no”. On to vineomycin, for which the “inhibitory on Rev binding at any concentration tested” value is “no”.
